# Assay results taken from patent publication US20240228920A1, “Distilled Spirit with modified Alcohol Levels with or without a Functional Ingredient” (priority 2023, published 2024).
# Experiments:
# MAO A = biological target: T1, MAO A (Homo sapiens, UniProt P21397); experiment: MAO A inhibitory activity assay; format: biochemical; settings: terpene at 0.5% (v/v) in Don Julio Añejo (40% ABV) minus in 40% ethanol
# T1 sequence (P21397 1-527): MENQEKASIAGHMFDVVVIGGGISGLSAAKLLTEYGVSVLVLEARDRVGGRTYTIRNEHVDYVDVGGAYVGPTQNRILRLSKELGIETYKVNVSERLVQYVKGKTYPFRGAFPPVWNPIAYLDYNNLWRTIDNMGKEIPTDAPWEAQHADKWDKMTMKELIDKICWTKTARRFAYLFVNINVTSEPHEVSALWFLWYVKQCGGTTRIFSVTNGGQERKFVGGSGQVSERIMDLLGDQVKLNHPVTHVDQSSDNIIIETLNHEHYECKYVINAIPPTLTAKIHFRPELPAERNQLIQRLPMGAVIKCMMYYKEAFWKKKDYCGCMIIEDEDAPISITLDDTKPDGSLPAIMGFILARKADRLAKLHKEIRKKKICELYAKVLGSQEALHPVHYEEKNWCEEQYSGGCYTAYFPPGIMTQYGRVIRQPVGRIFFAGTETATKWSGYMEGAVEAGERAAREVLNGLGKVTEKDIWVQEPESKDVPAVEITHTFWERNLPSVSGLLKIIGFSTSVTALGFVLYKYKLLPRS
# Protocol: (§1) U.S. […] The contents of this document are incorporated herein by reference, but briefly, methods that include reverse osmosis and low-pressure evaporation to provide retentates with significant concentrations of these inhibitors are described. In addition, details of assay methods for monoamine oxidase activity (and therefore inhibition thereof) and for ethanol content are provided. The effect of compounds on MAOI activity in tequila was evaluated in the experiment from Table 3.
# MAO B = biological target: T2, MAO B (Homo sapiens, UniProt P27338); experiment: MAO B inhibitory activity assay; format: biochemical; settings: terpene at 0.5% (v/v) in Don Julio Añejo (40% ABV) minus in 40% ethanol
# T2 sequence (P27338 1-520): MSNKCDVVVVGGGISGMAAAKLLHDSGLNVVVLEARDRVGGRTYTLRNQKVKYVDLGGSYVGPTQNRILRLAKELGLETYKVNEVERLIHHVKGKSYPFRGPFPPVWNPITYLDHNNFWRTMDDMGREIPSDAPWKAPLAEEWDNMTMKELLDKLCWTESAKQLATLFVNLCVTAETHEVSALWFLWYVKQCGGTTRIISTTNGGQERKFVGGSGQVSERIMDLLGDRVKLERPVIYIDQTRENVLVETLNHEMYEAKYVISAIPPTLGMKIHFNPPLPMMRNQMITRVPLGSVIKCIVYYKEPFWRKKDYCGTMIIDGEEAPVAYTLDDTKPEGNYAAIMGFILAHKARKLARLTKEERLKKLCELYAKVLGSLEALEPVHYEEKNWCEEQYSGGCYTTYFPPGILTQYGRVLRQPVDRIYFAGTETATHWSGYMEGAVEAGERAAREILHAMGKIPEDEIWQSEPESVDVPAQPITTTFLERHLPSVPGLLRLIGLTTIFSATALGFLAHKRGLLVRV
# Protocol: as §1
Δ % Inhibition MAO A (DJA + terpene) − (ETOH + terpene) (MAO A) [%],Δ % Inhibition MAO B (DJA + terpene) − (ETOH + terpene) (MAO B) [%],Compound
1,9,CC1=CCC(=C(C)C)CC1 [terpinolene]
9,20,C=C(C)[C@@H]1CCC2=CCC[C@@H](C)[C@]2(C)C1 [valencene]
5,11,C=CC(=C)CCC=C(C)C [β-myrcene]

# Continued, compound first:
Compound,Δ % Inhibition MAO A (DJA + terpene) − (ETOH + terpene) (MAO A) [%],Δ % Inhibition MAO B (DJA + terpene) − (ETOH + terpene) (MAO B) [%]
Geramol,4,9
CC(C)=CCCC(C)=CC=O [citral],0,2
C=CCc1ccc(O)c(OC)c1 [eugenol],1,8
